Where “and” joins values, the source holds several entries; their conditions need not be identical. Identical values can stand only once. Like-named read-outs stand apart in the source and are kept apart here.
Columns and labels:
[1] = assay type: binding, E. coli 0111:B4; settings: for EC50: E. coli 0111:B4 LPS, Tables 1-3, read-out: ED50 (half-maximal effective displacement of BC probe from LPS); for IC50: b47, cis-unsaturated vs saturated alkyl
Experimental: Polymyxin B (PMB), a peptide antibiotic known to bind and neutralize LPS^47 serves as the positive control and reference compound for every plate, enabling the quantitative assessment of repeatability and reproducibility (CV and Z′ factors) for the assay. Robotic liquid handling is performed on a Precision 2000 automated microplate pipetting system, programmed using the Precision Power software, Bio-Tek Instruments Inc., VT, USA. Stock solutions of LPS (5 mg/ml; E. coli 0111:B4; procured from Sigma) and BC (500 μM) are prepared in Tris buffer (pH 7.4, 50 mM). 1 ml each of the LPS and BC stocks are mixed and diluted in Tris buffer to a final volume of 100 ml, yielding final concentrations of 50 μg/ml of LPS and 5 μM BC. 40 μl of this BC:LPS mixture is added to each well of the plate using the Precision 2000. Fluorescence measurements are made at 25° C. on a Fluoromax-3 with Micromax Microwell 384-well plate reader, using DataMax software, Jobin Yvon Inc., N.J. The BC excitation wavelength is 580 nm, emission spectra are taken at 620 nm with both emission and excitation monochromator bandpasses set at 5 nm.

[2] = tested on: murine macrophage J774.A1 cells; assay: Nitric oxide (NO) inhibition in LPS-stimulated J774.A1 cells (Griess); assay type: cell-based; settings: for prevention of LPS-induced NO release from J774.A1 macrophages: in words
Experimental: Murine monocytes (J774.A1 cells) produce measurable quantities of NO on exposure to LPS and provide a model for the rapid assessment of compounds to neutralize LPS activity. […] In all experiments, Polymyxin B (PMB), a decapeptide antibiotic, known to bind and neutralize LPS,^29;47;48 is used as a reference compound.
Nitric oxide production is measured as total nitrite in murine macrophage J774.A1 cells using the Griess reagent system.^53;54 Murine macrophage J774.A1 cells are grown in RPMI-1640 cell-culture medium containing L-glutamine and sodium bicarbonate and supplemented with 10% fetal bovine serum, 1% L-glutamine-penicillin-streptomycin solution, and 200 μg/ml L-arginine at 37° C. in a 5% CO2 atmosphere. Cells are plated at ˜2×10^6/ml in a volume of 40 μl/well, in 384 well, flat-bottomed, cell culture treated microtiter plates until confluency and subsequently stimulated with 100 ng/ml lipopolysaccharide (LPS). Concurrent to LPS stimulation, serially diluted concentrations of test compounds are added to the cell medium and left to incubate overnight for 16 h. Polymyxin B is used as reference compound in each plate. Positive—(LPS stimulation only) and negative-controls (J774.A1 medium only) are included in each experiment. Nitrite concentrations are measured adding 30 μl of supernatant to equal volumes of Griess reagents (50 μl/well; 0.1% NED solution in ddH2O and 1% sulfanilamide, 5% phosphoric acid solution in ddH2O) and incubating for 15 minutes at room temperature in the dark. Absorbance at 535 nm is measured using a Molecular Devices Spectramax M2 multifunction plate reader (Sunnyvale, Calif.). Nitrite concentrations are interpolated from standard curves obtained from serially diluted sodium nitrite standards.

[3] = tested on: NFκB; assay: NFκB inhibition (LPS-induced); assay type: cell-based; settings: for prevention of LPS-induced NFκβ cytokine release from stimulated lymphocytes: in words
Description: A focused library of alkyl or acyl c-substituted lysine-spermine conjugates is synthesized with even carbon-numbered chains of C14 to C20 lengths. […] Furthermore, the data showhigh activity compounds are those with chain lengths between C16 and C20. […] The exemplary compounds L-Lys-ε-(stearoyl)-N^1-spermine, D-Lys-ε-(stearoyl)-N^1-spermine, L-Lys-ε-(octadecanyl)-N^1-spermine and D-Lys-ε-(octadecanyl)—N1-spermine all show high activity for the prevention of LPS-induced NFκβ cytokine release from stimulated lymphocytes. Furthermore, the exemplary compounds L-Lys-ε-(stearoyl)-N^1-spermine, D-Lys-ε-(stearoyl)-N^1-spermine, L-Lys-ε-(octadecanyl)-N^1-spermine and D-Lys-ε-(octadecanyl)-N^1-spermine all show high activity for the prevention of LPS-induced NO release from stimulated lymphocytes.

[4] = Mus musculus, J774.A1, 16 h, J774.A1 cells, 100 ng/ml LPS, 16 h, Tables 1-3, read-out: NO IC50
[5] = Table 7 focused library, NO inhibition, read-out: NO
[6] = J774.A1 cells, 100 ng/ml LPS, 16 h, Tables 1-3, read-out: NO IC50
[7] = Mus musculus, J774.A1, 16 h, read-out: NO IC50, J774.A1 cells, 100 ng/ml LPS, 16 h, Tables 1-3
[8] = Mus musculus, J774.A1, read-out: IC50 (LPS neutralization, NO)

## CCCCCCCCCCCCCCCCC(=O)NCCCCC(N)C(=O)NCCCNCCCCNCCCN [Compound 11, L-Lys-ε-(heptadecanoyl)-N^1-spermine]
[1]
  EC50: 6.71 µM
[2]; [4]
  IC50: 4.49 µM

## NCCCNCCCCNCCCNC(=O)C(N)CCCCNC(=O)CC1CC2CCC1C2 [Compound 20, D-Lys-ε-(2-norbornaneacetoyl)-N^1-spermine]
[1]
  EC50: 16.2 µM

## CC(C)CNCCCCC(N)C(=O)NCCCNCCCCNCCCN [Compound 35, D-Lys-ε-(3-methylpropyl)-N^1-spermine]
[1]
  EC50: 101 µM
[2]; [4]
  IC50: 72.9 µM

## CCCCCCCCCCCCCCCCNCCCCC(N)C(=O)NCCCNCCCCNCCCN [Compound 26, L-Lys-ε-(“hexadecyl)-N^1-spermine]
[1]
  EC50: 5.6 µM and 5.56 µM
  IC50: 5.6 µM
[2]; Mus musculus, J774.A1, Table 7 focused library, NO inhibition, read-out: NO
  IC50: 3.78 µM
[3]; Table 7 focused library, NFκB inhibition, read-out: NFκ B
  IC50: 0.19 µM

## CCCCCCCCCCCCCCCCNCCCCC(N)C(=O)NCCCNCCCCNCCCN (stereo not drawn) [Compound 47]
[2]; [5]
  IC50: 6.89 µM

## CCCCCCCCCCCCCC(=O)NCCCCC(N)C(=O)NCCCNCCCCNCCCN (stereo not drawn) [Compound 41]
[2]; [5]
  IC50: 26 µM

## CCCCCCNCCCCC(N)C(=O)NCCCNCCCCNCCCN (stereo not drawn) [Compound 31]
[1]
  EC50: 7.13 µM
[2]; [4]
  IC50: > 1000 µM

## CCCCCCCCCCCCCCCCCC(=O)NCCCCCC(=O)NCCCNCCCCNCCCN [Compound 52]
[2]; [5]
  IC50: 29.6 µM

## CCCCCCCCCCCCCCCC(=O)NCCCCC(N)C(=O)NCCCNCCCCNCCCN [Compound 13, D-Lys-ε-(palmitoyl)-N^1-spermine]
[1]
  EC50: 10 µM and 9.94 µM
[2]; [6]
  IC50: 2.29 µM
[2]; [5]
  IC50: 13 µM

## CCCCCCCCCCCCCCNCCCCC(N)C(=O)NCCCNCCCCNCCCN (stereo not drawn) [Compound 43]
[2]; [5]
  IC50: 6.17 µM

## CCCCCCCCCCCCCCNCCCCCC(=O)NCCCNCCCCNCCCN [Compound 54]
[2]; [5]
  IC50: 9.48 µM

## CCCCCCCCCCCCCCCCCCNCCCC[C@@H](N)C(=O)NCCCNCCCCNCCCN [Compound 48, D-Lys-ε-(octadecanyl)-N^1-spermine]
[2]; [5]
  IC50: 3.08 µM
[2]
  prevention of LPS-induced NO release from J774.A1 macrophages: high activity
[3]
  prevention of LPS-induced NFκβ cytokine release from stimulated lymphocytes: high activity

## NCCCNCCCCNCCCNC(=O)C(N)CCCCNCC1CCCCC1 (stereo not drawn) [Compound 37]
[1]
  EC50: 9.8 µM and 9.84 µM
[2]; [4]
  IC50: > 1000 µM

## CCCCCCCCCCCCCC(=O)NCCCCCC(=O)NCCCNCCCCNCCCN [Compound 50]
[2]; [5]
  IC50: 48.4 µM

## CCCCCCCCCCCCCCCCCCCCNCCCCC(N)C(=O)NCCCNCCCCNCCCN (stereo not drawn) [Compound 49]
[2]; [5]
  IC50: 2.2 µM

## NCCCNCCCCNCCCNC(=O)C(N)CCCCNCc1ccc(-c2ccccc2)cc1 [Compound 39, D-Lys-ε-(4-phenylbenzyl)-N^1-spermine]
[1]
  EC50: 3.7 µM and 3.71 µM
[2]; [6]
  IC50: 105 µM
[2]; [7]
  IC50: > 100 µM

## CCCCCCCCCCCCCCCCCCCC(=O)NCCCCCC(=O)NCCCNCCCCNCCCN [Compound 53]
[2]; [5]
  IC50: 26.6 µM

## CCCC/C=C\CCCCCCCCCCNCCCCC(N)C(=O)NCCCNCCCCNCCCN (stereo not drawn) [Compound 27]
[1]
  EC50: 2.59 µM
  IC50: 2.6 µM
[2]; [4]
  IC50: 0.66 µM

## CCCC/C=C/CCCCCCCCCC(=O)NCCCCC(N)C(=O)NCCCNCCCCNCCCN (stereo not drawn) [Compound 15]
[1]
  EC50: 3.8 µM and 3.82 µM
[2]; [6]
  IC50: 8.85 µM
[2]; [7]
  IC50: 8.8 µM

## CCCCCCCCCCCCCCCCNCCCCCC(=O)NCCCNCCCCNCCCN [Compound 55]
[2]; [5]
  IC50: 6.12 µM

## CCCCCCCNCCCCC(N)C(=O)NCCCNCCCCNCCCN (stereo not drawn) [Compound 28]
[1]
  EC50: 3.86 µM
[2]; [6]
  IC50: 82.3 µM

## CCCCCCCCCCCCCCCCCCNCCCCCC(=O)NCCCNCCCCNCCCN [Compound 56]
[2]; [5]
  IC50: 5.34 µM

## CCCCCCCCCCCCCCCCCCCCNCCCCCC(=O)NCCCNCCCCNCCCN [Compound 57]
[2]; [5]
  IC50: 5.02 µM

## CC(C)(C)CCNCCCCC(N)C(=O)NCCCNCCCCNCCCN [Compound 34, D-Lys-ε-(3,3-dimethyl-1-butyl)-N^1-spermine]
[1]
  EC50: 10.9 µM
[2]; [6]
  IC50: 838 µM

## CC(C)=CCC[C@H](C)CCNCCCCC(N)C(=O)NCCCNCCCCNCCCN (stereo partly drawn) [Compound 32]
[1]
  EC50: 9.6 µM and 9.55 µM
[2]; [4]
  IC50: > 1000 µM

## NCCCNCCCCNCCCNC(=O)C(N)CCCCNC(=O)CCCc1ccc2ccc3cccc4ccc1c2c34 [Compound 22, L-Lys-ε-(4-(1-pyrene)-butanoyl)-N^1-spermine]
[1]
  EC50: 7.1 µM and 7.09 µM
[2]; [6]
  IC50: 108 µM
[2]; [7]
  IC50: > 100 µM

## CCCCCCCCCCCCCCCCCCNCCCC[C@H](N)C(=O)NCCCNCCCCNCCCN [Compound 44, L-Lys-ε-(octadecanyl)-N^1-spermine]
[2]; [5]
  IC50: 2.25 µM
[2]
  prevention of LPS-induced NO release from J774.A1 macrophages: high activity
[3]
  prevention of LPS-induced NFκβ cytokine release from stimulated lymphocytes: high activity

## CCCCCCCCCCCCCCCCS(=O)(=O)NCCCCC(N)C(=O)NCCCNCCCCNCCCN [Compound 12, L-Lys-ε-(hexadecanesulfonamide)-N^1-spermine]
[1]
  EC50: 5.93 µM

## CCCCCCCN(CCCCCCC)CCCC[C@H](N)C(=O)NCCCNCCCCNCCCN [Compound 30, L-Lys-ε-(bis-(n-heptyl))-N^1-spermine]
[1]
  EC50: 2.14 µM
[2]; [6]
  IC50: 38.8 µM

## NCCCNCCCCNCCCNC(=O)C(N)CCCCNC(=O)c1ccc(-c2ccccc2)cc1 [Compound 21, D-Lys-ε-(4-biphenycarboxamide)-N^1-spermine]
[1]
  EC50: 7.9 µM and 7.86 µM
[2]; [6]
  IC50: 124 µM
[2]; [7]
  IC50: > 100 µM

## CC(C)C(=O)NCCCCC(N)C(=O)NCCCNCCCCNCCCN [Compound 18, D-Lys-ε-(isopropoyl)-N^1-spermine]
[1]
  EC50: 299 µM
[2]; [4]
  IC50: > 1000 µM

## NCCCNCCCCNCCCNC(=O)C(N)CCCCN(CC1CCCCC1)CC1CCCCC1 [Compound 38, L-Lys-ε-(bis-(cyclohexyl))-N^1-spermine]
[1]
  EC50: 4 µM and 4.04 µM
[2]; [6]
  IC50: > 1000 µM

## CCCCCC/C=C/CCCCCCCCCC(=O)NCCCCC(N)C(=O)NCCCNCCCCNCCCN (stereo not drawn) [Compound 10]
[1]
  EC50: 4.2 µM

## CCCCCCCCCCCCCCNCCCCC(N)C(=O)NCCCNCCCCNCCCN (stereo not drawn) [Compound 46]
[2]; [5]
  IC50: 5.34 µM

## COCCOCCOCC(=O)NCCCCC(N)C(=O)NCCCNCCCCNCCCN [Compound 24, L-Lys-ε-(2-[2-(2-methoxyethoxy)ethoxy]acetoyl)-N^1-spermine]
[1]
  EC50: 572 µM
[2]; [4]
  IC50: > 1000 µM
[2]; [8]
  IC50: > 1000 µM

## CCCCCCCCCCCCCCCCCCCC(=O)NCCCCC(N)C(=O)NCCCNCCCCNCCCN (stereo not drawn) [Compound 42]
[2]; [5]
  IC50: 5.77 µM

## CCCCCCCNCCCCC(N)C(=O)NCCCNCCCCNCCCN (stereo not drawn) [Compound 29]
[1]
  EC50: 5.99 µM
[2]; [6]
  IC50: 46.4 µM
[2]; [4]
  IC50: 46 µM

## CC(C)(C)C(=O)NCCCCC(N)C(=O)NCCCNCCCCNCCCN (stereo not drawn) [Compound 19]
[1]
  EC50: 327 µM
[2]; [4]
  IC50: > 1000 µM

## CCCCCCCCCCCCCCCCCCCCNCCCCC(N)C(=O)NCCCNCCCCNCCCN (stereo not drawn) [Compound 45]
[2]; [5]
  IC50: 3.67 µM

## CC(C)(C)CCNCCCCC(N)C(=O)NCCCNCCCCNCCCN (stereo not drawn) [Compound 33]
[1]
  EC50: 12.1 µM
[2]; [4]
  IC50: > 1000 µM

## COCCOCC(=O)NCCCCC(N)C(=O)NCCCNCCCCNCCCN [Compound 25, L-Lys-ε-(2-(2-methoxyethoxy)acetoyl)-N^1-spermine]
[1]
  EC50: 495 µM
[2]; [4]
  IC50: > 1000 µM
[2]; [8]
  IC50: > 1000 µM

## CCCCCCCC(=O)NCCCCC(N)C(=O)NCCCNCCCCNCCCN [Compound 17, L-Lys-ε-(octanoyl)-N^1-spermine]
[1]
  EC50: 13 µM
[2]; [6]
  IC50: 162 µM
[2]; [4]
  IC50: 160 µM

Reference: US20060122279A1, “Hydrophobic polyamine amides as potent lipopolysaccharide sequestrants” (priority 2004, published 2006)
